Measurements reported in patent publication USRE39056E1, “4-Azasteroids for treatment of hyperandrogenic conditions” (Merck & Co, Inc., priority 1995, dated 2006).
Like-named read-outs stand apart in the source and are kept apart here.

How the values were obtained:
[1] = target: T1, human androgen receptor (Homo sapiens, UniProt P10275); assay: Human androgen receptor activity assay (anti-androgen activity, hAR); format: binding
T1 sequence (P10275 1-920): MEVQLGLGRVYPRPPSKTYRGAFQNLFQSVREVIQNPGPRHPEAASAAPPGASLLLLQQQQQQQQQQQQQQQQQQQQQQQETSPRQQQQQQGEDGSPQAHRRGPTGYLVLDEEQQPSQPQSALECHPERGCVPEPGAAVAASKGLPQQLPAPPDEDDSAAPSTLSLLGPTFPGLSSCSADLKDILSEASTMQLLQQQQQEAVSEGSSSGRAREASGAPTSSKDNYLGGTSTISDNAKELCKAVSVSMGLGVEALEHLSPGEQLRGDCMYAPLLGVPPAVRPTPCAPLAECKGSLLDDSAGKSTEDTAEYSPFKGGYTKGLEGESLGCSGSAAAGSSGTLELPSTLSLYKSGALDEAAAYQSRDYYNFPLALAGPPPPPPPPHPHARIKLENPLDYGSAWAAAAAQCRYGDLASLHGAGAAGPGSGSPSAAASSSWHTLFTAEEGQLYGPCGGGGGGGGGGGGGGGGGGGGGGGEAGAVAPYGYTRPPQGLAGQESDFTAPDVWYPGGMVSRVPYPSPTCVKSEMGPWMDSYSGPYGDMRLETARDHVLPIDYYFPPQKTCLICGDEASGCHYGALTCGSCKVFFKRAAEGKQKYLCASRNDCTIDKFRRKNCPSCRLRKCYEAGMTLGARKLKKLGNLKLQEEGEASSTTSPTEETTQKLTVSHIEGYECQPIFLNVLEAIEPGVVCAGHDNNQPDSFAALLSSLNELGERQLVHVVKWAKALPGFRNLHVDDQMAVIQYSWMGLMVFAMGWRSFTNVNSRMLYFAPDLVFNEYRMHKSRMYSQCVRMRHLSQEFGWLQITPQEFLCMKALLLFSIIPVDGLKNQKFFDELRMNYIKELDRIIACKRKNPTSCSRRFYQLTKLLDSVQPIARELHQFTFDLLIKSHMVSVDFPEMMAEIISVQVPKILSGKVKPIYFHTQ

[2] = target: T2, type 1 5α-reductase (Homo sapiens, UniProt P18405); assay: 5α-reductase assay, type 1 (human scalp homogenate), inhibition studies; format: biochemical
T2 construct: Preparation of Human Prostatic and Scalp 5α-reductases; from tissue; host or cells: human scalp (crude nuclear pellet of the homogenate)
T2 sequence (P18405 1-259): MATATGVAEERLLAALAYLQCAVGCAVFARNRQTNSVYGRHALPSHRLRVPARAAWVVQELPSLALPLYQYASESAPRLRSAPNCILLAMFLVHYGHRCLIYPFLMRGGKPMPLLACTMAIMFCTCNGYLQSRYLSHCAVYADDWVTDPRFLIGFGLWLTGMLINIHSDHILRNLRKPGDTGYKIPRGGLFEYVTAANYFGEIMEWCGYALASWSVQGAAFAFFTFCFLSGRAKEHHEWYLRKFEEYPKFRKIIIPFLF
Experimental: (§1) Samples of human tissue were pulverized using a freezer mill and homogenized in 40 mM potassium phosphate, pH 6.5, 5 mM magnesium sulfate, 25 mM potassium chloride, 1 mM phenylmethyl-sulfonyl fluoride, 1 mM dithiothreitol (DTT) containing 0.25 M sucrose using a Potter-Elvehjem homogenizer. A crude nuclear pellet was prepared by centrifugation of the homogenate at 1,500× G for 15 min. The crude nuclear pellet was washed two times and resuspended in two volumes of buffer. Glycerol was added to the resuspended pellet to a final concentration of 20%. The enzyme suspension was frozen in aliquots at −80° C.
(§2) The reaction mixture for the type 1 5α-reductase contained 40 mM potassium phosphate, pH 6.5, […] [7-^3H]-testosterone, 1 mM dithiothreitol and 500 μM NADPH in a final volume of 100 μL. The reaction mixture for the type 2 5α-reductase contained 40 mM sodium citrate, pH 5.5 0.3 mM [7-^3H]-testosterone, 1 mM dithiothreitol and 500 μM NADPH in a final volume of 100 μL. Typically, the assay was initiated by the addition of 50-100 μg prostatic homogenate or 75-200 μg scalp homogenate and incubated at 37° C. After 10-50 min. the reaction was quenched by extraction with 250 μL of a mixture of 70% cyclohexane: 30% ethyl acetate containing 10 μg each DHT and T. The aqueous and organic layers were separated by centrifugation at 14,000 rpm in an Eppendorf microfuge. The organic layer was subjected to normal phase HPLC (10 cm Whatman partisil 5 silica column established in 1 ml/min 70% cyclohexane: 30% ethyl acetate; retention times: DHT, 6.8-7.2 min.; androstanediol, 7.6-8.0 min.; T, 9.1-9.7 min.). […] The conversion of T to DHT was monitored using the radioactivity flow detector by mixing the HPLC effluent with one volume of Flo Scint 1 (Radiomatic).
(§3) Compounds were dissolved in 100% ethanol. The compound to be tested was pre-incubated with the enzyme (either 5α-reductase type 1 or 2) prior to initiation by addition of substrate testosterone. […] Representative compounds of this invention were tested in the above described assay for 5α-reductase type 1 and type 2 inhibition.

[3] = target: T3, type 2 5α-reductase (Homo sapiens, UniProt P31213); assay: 5α-reductase assay, type 2 (human prostatic homogenate), inhibition studies; format: biochemical
T3 construct: Preparation of Human Prostatic and Scalp 5α-reductases; from tissue; host or cells: human prostate (crude nuclear pellet of the homogenate)
T3 sequence (P31213 1-254): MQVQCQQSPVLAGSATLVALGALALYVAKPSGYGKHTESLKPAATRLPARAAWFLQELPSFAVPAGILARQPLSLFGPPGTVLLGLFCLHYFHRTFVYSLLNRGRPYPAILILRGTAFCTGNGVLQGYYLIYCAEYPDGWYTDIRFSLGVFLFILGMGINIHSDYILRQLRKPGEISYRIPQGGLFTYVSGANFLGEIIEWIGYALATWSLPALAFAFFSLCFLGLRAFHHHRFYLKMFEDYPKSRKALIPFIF
Experimental: as §1, §2, §3

[4] = human, anti-androgen activity, read-out: IC50 hAR
[5] = human, conversion of testosterone to DHT, pH 6.5, read-out: IC50 Type 1 5aR
[6] = human, conversion of testosterone to DHT, pH 5.5, read-out: IC50 Type 2 5aR

For CN1C(=O)C=C[C@]2(C)[C@H]3CC[C@]4(C)[C@@H](C(=O)Nc5ccc(Cl)cc5)CC[C@H]4[C@@H]3CC[C@@H]12 [Example 1, N-(4-chlorophenyl)-3-oxo-4-methyl-4-aza-5α-androst-1-ene-17β-carboxamide], the IC50 [1, 4] was 10 nM, the IC50 [2] was 40 nM and the IC50 [3] was 100 nM.
Compound CN1C(=O)C=C[C@]2(C)[C@H]3CC[C@]4(C)[C@@H](C(=O)Nc5ccccc5C(F)(F)F)CC[C@H]4[C@@H]3CC[C@@H]12 [Example 4, N-(2-trifluoromethyl-phenyl)-3-oxo-4-aza-4-methyl-5α-androst-1-ene-17β-carboxamide] has an IC50 [1] of 30 nM, an IC50 [2] of 2 nM and an IC50 [3] of 7 nM.
With CN1C(=O)C=C[C@]2(C)[C@H]3CC[C@]4(C)[C@@H](C(=O)NC(c5ccccc5)c5ccccc5)CC[C@H]4[C@@H]3CC[C@@H]12 [Example 10, N-(diphenylmethyl)-4-methyl-3-oxo-4-aza-5α-androst-1-ene-17-β-carboxamide] the IC50 [1, 4] was 40 nM, the IC50 [2, 5] was 20 nM and the IC50 [3, 6] was 2 nM.
Compound CN1C(=O)C=C[C@]2(C)[C@H]3CC[C@]4(C)[C@@H](C(=O)Nc5ccccc5F)CC[C@H]4[C@@H]3CC[C@@H]12 [Example 3, N-(2-fluorophenyl)-3-oxo-4-aza-4-methyl-5α-androst-1-ene-17β-carboxamide] has an IC50 [1] of 9 nM, an IC50 [2] of 20 nM and an IC50 [3] of 60 nM.
Work on CN(C(=O)[C@H]1CC[C@H]2[C@@H]3CC[C@H]4N(C)C(=O)C=C[C@]4(C)[C@H]3CC[C@]12C)C(c1ccccc1)c1ccccc1 [Example 11, N-(diphenylmethyl)-N-(methyl)-4-methyl-3-oxo4-aza-5α-androst-1-ene-17-β-carboxamide] yielded an IC50 [1, 4] of 850 nM, an IC50 [2, 5] of 3 nM and an IC50 [3, 6] of 0.3 nM.
In the case of CN1C(=O)C=C[C@]2(C)[C@H]3CC[C@]4(C)[C@@H](C(=O)Nc5ccccc5Cl)CC[C@H]4[C@@H]3CC[C@@H]12 [Example 6, N-(2-chlorophenyl)-3-oxo-4-aza-4-methyl-5α-androst-1-ene-17β-carboxamide], the IC50 [1] is reported as 8 nM, the IC50 [2] is reported as 6 nM and the IC50 [3] is reported as 10 nM.
With Cc1ccccc1NC(=O)[C@H]1CC[C@H]2[C@@H]3CC[C@H]4N(C)C(=O)C=C[C@]4(C)[C@H]3CC[C@]12C [Example 5, N-(2-methylphenyl)-3-oxo-4-aza-4-methyl-5α-androst-1-ene-17β-carboxamide] the IC50 [1] was 30 nM, the IC50 [2] was 20 nM and the IC50 [3] was 20 nM.
Work on COc1ccccc1NC(=O)[C@H]1CC[C@H]2[C@@H]3CC[C@H]4N(C)C(=O)C=C[C@]4(C)[C@H]3CC[C@]12C [Example 2, N-(2-methoxyphenyl)-3-oxo-4-aza-4-methyl-5α-androst-1-ene-17β-carboxamide] yielded an IC50 [1] of 40 nM, an IC50 [2] of 20 nM and an IC50 [3] of 100 nM.
For CN1C(=O)C=C[C@]2(C)[C@H]3CC[C@]4(C)[C@@H](C(=O)Nc5cc(C(F)(F)F)ccc5C(F)(F)F)CC[C@H]4[C@@H]3CC[C@@H]12 [Example 7, N-(2,5-bistrifluoromethyl-phenyl)-3-oxo-4-aza-4-methyl-5α-androst-1-ene-17β-carboxamide], the IC50 [1] was 20 nM, the IC50 [2] was 4 nM and the IC50 [3] was 20 nM.
